In ChEMBL document CHEMBL1130210, “Steroidal glycoside cholesterol absorption inhibitors” (1997):

System: Cricetinae gen. sp.
Assay: Ability to inhibit the intestinal absorption of [3H]cholesterol in cholesterol-fed hamsters
Format: functional

Compound	ED50 [mg/kg]
C[C@]12CC[C@H](O[C@@H]3O[C@@H](CO)[C@@H](O[C@@H]4O[C@@H](CO)[C@@H](O)[C@H](O)[C@@H]4O)[C@H](O)[C@@H]3O)C[C@@H]1CC[C@@H]1[C@@H]2CC[C@]2(C)C(=O)CC[C@@H]12	25
C[C@@H]1CC[C@@]2(OC1)OC1CC3C4CC[C@H]5C[C@@H](O[C@@H]6O[C@@H](COC(=O)Nc7ccc(Cl)cc7)[C@@H](O[C@@H]7O[C@@H](COC(=O)Nc8ccc(Cl)cc8)[C@@H](O)[C@H](O)[C@@H]7O)[C@H](O)[C@@H]6O)CC[C@]5(C)C4C(=O)C[C@]3(C)C1[C@@H]2C (some centres not stated)	5
C[C@@H]1CC[C@@]2(OC1)OC1CC3C4CC[C@H]5C[C@@H](O[C@@H]6O[C@@H](CO)[C@@H](O[C@@H]7O[C@@H](COC(=O)N8CCCC8)[C@@H](O)[C@H](O)[C@@H]7O)[C@H](O)[C@@H]6O)CC[C@]5(C)C4C(=O)C[C@]3(C)C1[C@@H]2C (some centres not stated)	1.5
C[C@@H]1CC[C@@]2(OC1)OC1CC3C4CC[C@H]5C[C@@H](O[C@@H]6O[C@@H](COC(=O)Nc7ccccc7F)[C@@H](O[C@@H]7O[C@@H](COC(=O)Nc8ccccc8F)[C@@H](O)[C@H](O)[C@@H]7O)[C@H](O)[C@@H]6O)CC[C@]5(C)C4C(=O)C[C@]3(C)C1[C@@H]2C (some centres not stated)	0.8
C[C@@H]1CC[C@@]2(OC1)OC1CC3C4CC[C@H]5C[C@@H](O[C@@H]6O[C@@H](CO)[C@@H](O[C@@H]7O[C@@H](COC(=O)Nc8ccccc8F)[C@@H](OC(=O)Nc8ccccc8F)[C@H](O)[C@@H]7O)[C@H](O)[C@@H]6O)CC[C@]5(C)C4CC(=O)[C@]3(C)C1[C@@H]2C (some centres not stated)	0.07
C[C@@H]1CC[C@@]2(OC1)OC1CC3C4CC[C@H]5C[C@@H](O[C@@H]6O[C@@H](CO)[C@@H](O[C@@H]7O[C@@H](COC(=O)Nc8ccc(Cl)cc8)[C@@H](O)[C@H](O)[C@@H]7O)[C@H](O)[C@@H]6O)CC[C@]5(C)C4C(=O)C[C@]3(C)C1[C@@H]2C (some centres not stated)	1
CC(C)CCC[C@@H](C)C1CC[C@H]2[C@@H]3CC[C@H]4C[C@@H](O[C@@H]5O[C@@H](CO)[C@@H](O[C@@H]6O[C@@H](CO)[C@@H](O)[C@H](O)[C@@H]6O)[C@H](O)[C@@H]5O)CC[C@]4(C)[C@H]3CC[C@]12C (some centres not stated)	150
C[C@@H]1CC[C@@]2(OC1)OC1CC3C4CC[C@H]5C[C@@H](O[C@@H]6O[C@@H](COC(=O)Nc7ccccc7F)[C@@H](O[C@@H]7O[C@@H](CO)[C@@H](O)[C@H](O)[C@@H]7O)[C@H](O)[C@@H]6O)CC[C@]5(C)C4C(=O)C[C@]3(C)C1[C@@H]2C (some centres not stated)	7
C[C@@H]1CC[C@@]2(OC1)OC1CC3C4CC[C@H]5C[C@@H](O[C@@H]6O[C@@H](CO)[C@@H](O[C@@H]7O[C@@H](COC(=O)Nc8ccc(F)cc8)[C@@H](OC(=O)Nc8ccc(F)cc8)[C@H](O)[C@@H]7O)[C@H](O)[C@@H]6O)CC[C@]5(C)C4C(=O)C[C@]3(C)C1[C@@H]2C (some centres not stated)	0.2
C[C@@H]1CC[C@@]2(OC1)OC1CC3C4CC[C@H]5C[C@@H](O[C@@H]6O[C@@H](CO)[C@@H](O[C@@H]7O[C@@H](COC(=O)Nc8c(Cl)cccc8Cl)[C@@H](O)[C@H](O)[C@@H]7O)[C@H](O)[C@@H]6O)CC[C@]5(C)C4C(=O)C[C@]3(C)C1[C@@H]2C (some centres not stated)	0.2
C[C@@H]1CC[C@@]2(OC1)OC1CC3C4CC[C@H]5C[C@@H](O[C@@H]6O[C@@H](CO)[C@@H](O[C@@H]7O[C@@H](COC(=O)Nc8ccc(F)cc8F)[C@@H](O)[C@H](O)[C@@H]7O)[C@H](O)[C@@H]6O)CC[C@]5(C)C4C(=O)C[C@]3(C)C1[C@@H]2C (some centres not stated)	0.25
C[C@@H]1CC[C@@]2(OC1)OC1CC3C4CC[C@H]5C[C@@H](O[C@@H]6O[C@@H](CO)[C@@H](O[C@@H]7O[C@@H](COC(=O)Nc8ccc(F)cc8F)[C@@H](OC(=O)Nc8ccc(F)cc8F)[C@H](O)[C@@H]7O)[C@H](O)[C@@H]6O)CC[C@]5(C)C4C(=O)C[C@]3(C)C1[C@@H]2C (some centres not stated)	0.04
C[C@@H]1CC[C@@]2(OC1)O[C@H]1C[C@H]3[C@@H]4CC[C@H]5C[C@@H](O[C@@H]6O[C@@H](CO)[C@@H](O[C@@H]7O[C@@H](CO)[C@@H](O)[C@H](O)[C@@H]7O)[C@H](O)[C@@H]6O)CC[C@]5(C)[C@H]4CC(=O)[C@]3(C)[C@H]1[C@@H]2C [CELLOBIOSYL HECOGENIN]	10
C[C@H]1CC[C@@]2(OC1)O[C@H]1C[C@H]3[C@@H]4CC[C@@H]5C[C@@H](O[C@@H]6O[C@@H](CO)[C@@H](O[C@@H]7O[C@@H](CO)[C@@H](O)[C@H](O)[C@@H]7O)[C@H](O)[C@@H]6O)CC[C@]5(C)[C@H]4CC[C@]3(C)C1[C@@H]2C (some centres not stated)	75
C[C@@H]1CC[C@@]2(OC1)OC1CC3C4CC[C@H]5C[C@@H](O[C@@H]6O[C@@H](CO)[C@@H](O[C@@H]7O[C@@H](COC(=O)Nc8ccccc8F)[C@@H](OC(=O)Nc8ccccc8F)[C@H](O)[C@@H]7O)[C@H](O)[C@@H]6O)CC[C@]5(C)C4C(=O)C[C@]3(C)C1[C@@H]2C (some centres not stated)	0.025
C[C@@H]1CC[C@@]2(OC1)OC1CC3C4CC[C@H]5C[C@@H](O[C@@H]6O[C@@H](CO)[C@@H](O[C@@H]7O[C@@H](COC(=O)Nc8ccccc8)[C@@H](OC(=O)Nc8ccccc8)[C@H](O)[C@@H]7O)[C@H](O)[C@@H]6O)CC[C@]5(C)C4C(=O)C[C@]3(C)C1[C@@H]2C (some centres not stated)	0.1

Compound	ED50 [mg/kg]
CC1CC[C@@]2(OC1)OC1C[C@H]3[C@@H]4CC[C@H]5C[C@@H](O[C@@H]6O[C@@H](CO)[C@@H](O[C@@H]7O[C@@H](COC(=O)N8CCOCC8)[C@@H](OC(=O)N8CCOCC8)[C@H](O)C7O)[C@H](O)[C@@H]6O)CC[C@]5(C)[C@H]4C(=O)C[C@]3(C)C1[C@@H]2C (some centres not stated)	4
C[C@@H]1CC[C@@]2(OC1)OC1CC3C4CC[C@H]5C[C@@H](O[C@@H]6O[C@@H](CO)[C@@H](O[C@@H]7O[C@@H](COC(=O)NCc8ccco8)[C@@H](OC(=O)NCc8ccco8)[C@H](O)[C@@H]7O)[C@H](O)[C@@H]6O)CC[C@]5(C)C4C(=O)C[C@]3(C)C1[C@@H]2C (some centres not stated)	0.3
C[C@@H]1CC[C@@]2(OC1)OC1CC3C4CC[C@H]5C[C@@H](O[C@@H]6O[C@@H](CO)[C@@H](O[C@@H]7O[C@@H](COC(=O)NCc8ccccc8)[C@@H](OC(=O)NCc8ccccc8)[C@H](O)[C@@H]7O)[C@H](O)[C@@H]6O)CC[C@]5(C)C4C(=O)C[C@]3(C)C1[C@@H]2C (some centres not stated)	0.3
CCOC(=O)CNC(=O)OC[C@@H]1O[C@@H](O[C@H]2[C@H](O)[C@H](O)[C@H](O[C@H]3CC[C@]4(C)C5C(=O)C[C@@]6(C)C(CC7O[C@]8(CC[C@@H](C)CO8)[C@@H](C)C76)C5CC[C@H]4C3)O[C@H]2CO)[C@@H](O)[C@@H](O)[C@@H]1OC(=O)NCC(=O)OCC (some centres not stated)	0.6
C[C@@H]1CC[C@@]2(OC1)OC1CC3C4CC[C@H]5C[C@@H](O[C@@H]6O[C@@H](CO)[C@@H](O[C@@H]7O[C@@H](COC(=O)Nc8ccccc8F)[C@@H](OC(=O)Nc8ccccc8F)[C@H](O)[C@@H]7O)[C@H](O)[C@@H]6O)CC[C@]5(C)C4CC[C@]3(C)C1[C@@H]2C (some centres not stated)	1
C[C@@H]1CC[C@@]2(OC1)O[C@H]1C[C@H]3[C@@H]4CC[C@H]5C[C@@H](O[C@@H]6O[C@H](CO)[C@@H](O)[C@H](O)[C@H]6O)CC[C@]5(C)[C@H]4C(=O)C[C@]3(C)[C@H]1[C@@H]2C	16
C[C@@H]1CC[C@@]2(OC1)OC1CC3C4CC[C@H]5C[C@@H](O[C@@H]6O[C@@H](COC(=O)Nc7c(Cl)cccc7Cl)[C@@H](O[C@@H]7O[C@@H](COC(=O)Nc8c(Cl)cccc8Cl)[C@@H](O)[C@H](O)[C@@H]7O)[C@H](O)[C@@H]6O)CC[C@]5(C)C4C(=O)C[C@]3(C)C1[C@@H]2C (some centres not stated)	0.4
Cc1ccccc1NC(=O)OC[C@@H]1O[C@@H](O[C@H]2[C@H](O)[C@H](O)[C@H](O[C@H]3CC[C@]4(C)C5C(=O)C[C@@]6(C)C(CC7O[C@]8(CC[C@@H](C)CO8)[C@@H](C)C76)C5CC[C@H]4C3)O[C@H]2CO)[C@@H](O)[C@@H](O)[C@@H]1O (some centres not stated)	0.5
C[C@@H]1CC[C@@]2(OC1)O[C@H]1C[C@H]3[C@@H]4CC[C@H]5C[C@@H](O[C@@H]6O[C@H](CO)[C@H](O)[C@H](O)[C@H]6O)CC[C@]5(C)[C@H]4C(=O)C[C@]3(C)[C@H]1[C@@H]2C	12
CC1CC[C@@]2(OC1)OC1C[C@H]3[C@@H]4CC[C@H]5C[C@@H](OC6OC(CI)C(OC7OC(CI)C(O)C(O)C7O)C(O)C6O)CC[C@]5(C)[C@H]4C(=O)C[C@]3(C)C1[C@@H]2C (some centres not stated)	1.5
C[C@@H]1CC[C@@]2(OC1)O[C@H]1C[C@H]3[C@@H]4CC=C5C[C@@H](O[C@@H]6O[C@@H](CO)[C@@H](O[C@@H]7O[C@@H](CO)[C@@H](O)[C@H](O)[C@@H]7O)[C@H](O)[C@@H]6O)CC[C@]5(C)[C@H]4CC[C@]3(C)[C@H]1[C@@H]2C	100
C[C@@H]1CC[C@@]2(OC1)OC1CC3C4CC[C@H]5C[C@@H](O[C@@H]6O[C@@H](CO)[C@@H](O[C@@H]7O[C@@H](COC(=O)Nc8cccc(F)c8)[C@@H](OC(=O)Nc8cccc(F)c8)[C@H](O)[C@@H]7O)[C@H](O)[C@@H]6O)CC[C@]5(C)C4C(=O)C[C@]3(C)C1[C@@H]2C (some centres not stated)	0.1
CC1CC[C@@]2(OC1)OC1C[C@H]3[C@@H]4CC[C@H]5C[C@@H](OC6OC(CCl)C(OC7OC(CCl)C(O)C(O)C7O)C(O)C6O)CC[C@]5(C)[C@H]4C(=O)C[C@]3(C)C1[C@@H]2C (some centres not stated)	0.5
C[C@@H]1CC[C@@]2(OC1)OC1CC3C4CC[C@H]5C[C@@H](O[C@@H]6O[C@@H](CO)[C@@H](O[C@@H]7O[C@@H](COC(=S)Nc8ccccc8)[C@@H](OC(=S)Nc8ccccc8)[C@H](O)[C@@H]7O)[C@H](O)[C@@H]6O)CC[C@]5(C)C4C(=O)C[C@]3(C)C1[C@@H]2C (some centres not stated)	0.04
C[C@@H]1CC[C@@]2(OC1)OC1CC3C4CC[C@H]5C[C@@H](O[C@@H]6O[C@@H](CO)[C@@H](O[C@@H]7O[C@@H](COC(=O)NCCc8ccccc8)[C@@H](O)[C@H](O)[C@@H]7O)[C@H](O)[C@@H]6O)CC[C@]5(C)C4C(=O)C[C@]3(C)C1[C@@H]2C (some centres not stated)	5
C[C@@H]1CC[C@@]2(OC1)OC1C[C@H]3[C@@H]4CC[C@H]5C[C@@H](O[C@@H]6O[C@@H](CO)[C@@H](O[C@@H]7O[C@@H](COC(=O)Nc8ccccc8F)[C@@H](O)[C@H](O)[C@@H]7O)[C@H](O)[C@@H]6O)CC[C@]5(C)[C@H]4C(=O)C[C@]3(C)C1[C@@H]2C (some centres not stated)	0.2
